Results on one substance are retold here after patent US20100029590A1, “METHODS FOR TREATING OR PREVENTING HEMORRHAGIC CYSTITIS USING A GLYCEROPHOSPHATE SALT” (PRELIEF INC., priority 2007, published 2010).

The test system of this assay is patients suffering from radiation cystitis. Briefly: Clinical observation of radiation cystitis patients after prostatic brachytherapy given oral Prelief® (CGP): average number of micturitions per night and symptoms. The assay is classed as in vivo, human. The conditions noted are these: for frequency of urination: six patients. The source says:
This example depicts a method of using calcium glycerophosphate (CGP) in treating radiation cystitis in a clinical setting. Methods similar to that exemplified herein, however, is equally applicable to using any glycerophosphate salt in treating or preventing any type of hemorrhagic cystitis.
All six patients, aging from 51 to 74 year old at the time, were under prostatic brachytherapy treatment. […] Two Prelief® tablets, each containing about 0.335 gram CGP, were orally administered to each patient three times a day starting at about 0 to 8 months after the brachytherapy. […] Some patients were also treated with another therapy after the radiation, such as by a stent, or with the administration of AINES, Trospium Chloride, or Tamsulosina. On their post brachytherapy visitations, each patient was asked, among other things, the average number of micturitions per night.
This is in comparison to up to 12 times per night expected micturations in severe cases of this type when patients are given regular medications. The frequency of urination was further reduced by continuing oral administration of CGP.
14, 2002. […] Oral administration of CGP was again reported to be effective in reducing symptoms of hemorrhagic cystitis, e.g., the frequency of urination was reduced to about 7 times or about 2.5 times per night after oral administration of CGP for about 4 months or about 9 months, respectively, following the removal of the stent.

As to calcium glycerophosphate [CGP], the “frequency of urination, patient #1” value was “about 11 times per night” (patient #1, about 1 month following removal of a stent (increased symptoms)); “about 11 times per night” (patient #1, about 3 months following brachytherapy, before oral CGP (baseline)); “about 7 times per night” (patient #1, after oral administration of CGP for about 5 months); “about 7 times per night” (patient #1, oral CGP for about 4 months following removal of the stent); “about 2.5 times per night” (patient #1, oral CGP for about 9 months following removal of the stent). For the setting “reported by each of the six patients after oral administration of CGP”, the “symptoms of radiation cystitis” value is reported as “Reduced symptoms of radiation cystitis”. The pain in bladder entry (reported by the patients, oral CGP (data not shown)) is recorded as “reduced pain in bladder”. The frequency of urination is, setting by setting: (after oral administration of CGP for about three months) 4.5-7 times per night; (before oral administration of CGP (baseline)) 8-11 times per night; (succeeding seven months of oral CGP) 3-7 times per night.
